Source: ChEMBL document CHEMBL5120746, “Novel 5-fluorouracil sensitizers for colorectal cancer therapy: Design and synthesis of S1P receptor 2 (S1PR2) antagonists” (Eur J Med Chem, 2022)

Legend:
SW620/5-FU [1] = experiment: Antitumor activity against human SW620/5-FU cells xenografted in SPF nude mouse assessed as tumor growth inhibition at 15 mg/kg, iv QD for 21 days and measured every 4 days; type: functional; details: 504 h, time 21 day, read-out: TGI
SW620/5-FU [2] = experiment: Antitumor activity against human SW620/5-FU cells xenografted in SPF nude mouse assessed as reduction in tumor weight at 30 mg/kg, iv QD for 21 days in presence of 5-fluorouracil; type: functional; set-up: scale not given: the % may be the effect or the level left; details: time 21 day
[3] = Downregulation of DPD expression in tumor of SPF nude mouse xenografted with human SW620/5-FU cells at 30 mg/kg, iv QD for 21 days in presence of 5-fluorouracil by Western blot analysis; type: functional; details: time 21 day
[4] = MRT (0 to t) in Sprague-Dawley rat blood at 1 mg/kg, iv measured up to 24 hrs by HPLC-MS/MS analysis; type: ADME, organism-based
[5] = Apparent volume of distribution in Sprague-Dawley rat blood at 1 mg/kg, iv measured up to 24 hrs by HPLC-MS/MS analysis; type: ADME, organism-based; details: read-out: Vd(app)
[6] = Downregulation of S1PR2 mRNA expression level in human SW620/5-FU cells at 20 uM measured after 24 hrs by qRT-PCR analysis; type: functional
SW620/5-FU [7] = experiment: Antitumor activity against human SW620/5-FU cells xenografted in SPF nude mouse assessed as reduction in tumor weight at 7.5 mg/kg, iv QD for 21 days; type: functional; set-up: scale not given: the % may be the effect or the level left; details: time 21 day
SW620/5-FU [8] = experiment: Antitumor activity against human SW620/5-FU cells xenografted in SPF nude mouse assessed as tumor growth inhibition at 7.5 mg/kg, iv QD for 21 days and measured every 4 days in presence of 5-fluorouracil; type: functional; details: 504 h, time 21 day, read-out: TGI
[9] = AUC (0 to t) in Sprague-Dawley rat blood at 1 mg/kg, iv measured up to 24 hrs by HPLC-MS/MS analysis; type: ADME, organism-based; set-up: dose 1 mg/kg, time < 24 hrs, route iv
[10] = AUC (0 to infinity) in Sprague-Dawley rat plasma at 1 mg/kg, iv measured up to 24 hrs by HPLC-MS/MS analysis; type: ADME, organism-based; set-up: dose 1 mg/kg, time < 24 hrs, route iv
[11] = Apparent volume of distribution in Sprague-Dawley rat plasma at 1 mg/kg, iv measured up to 24 hrs by HPLC-MS/MS analysis; type: ADME, organism-based; details: in vivo
[12] = Clearance in Sprague-Dawley rat blood at 1 mg/kg, iv measured up to 24 hrs by HPLC-MS/MS analysis; type: ADME, organism-based

- MRT last at 24 h [4]: 7.9 h
- Vd [5]: 1.8 L/kg
- AUC(0-t) at 24 h [9]: 10300 ng·h/mL
- AUC(0-inf) [10]: 11700 ng·h/mL
- Vd(app) [11]: 2 L/kg
- clearance [12]: 1.5 mL/min/kg
SMILES: Cn1ncc2c(-c3ccc(F)cc3)cc(NNC(=O)Nc3cc(Cl)nc(Cl)c3)nc21
- inhibition in vivo at 15 mg/kg (SW620/5-FU [1]): 28.5%
- Activity (SW620/5-FU [2]): 60.81%
- Activity [3]: 0.05
- Activity [6]: 25%
- Activity (SW620/5-FU [7]): 8.68%
- inhibition in vivo at 7.5 mg/kg (SW620/5-FU [8]): 43.2%
